Laboratory results published in patent publication EP3305781A1, “CHEMICAL SUBSTANCES WHICH INHIBIT THE ENZYMATIC ACTIVITY OF HUMAN KALLIKREIN-RELATED PEPTIDASE 6 (KLK6)” (Deutsches Krebsforschungszentrum, priority 2016, dated 2018).
Where two headings read alike, the source gives them in different places.

Columns and labels:
[1] = NMR-based stability assay in cell culture medium; assay type: physicochemical; settings: ~8 mM in DMSO-d6 diluted 1:3 with DMEM + 10% FCS; NMR at 37°C for 16 hours; compared with Example Compound 1; Figures 1-3
[2] = target: KLK6 (Homo sapiens, UniProt Q92876); test: Biochemical inhibition assay, fluorogenic substrate FSR-AMC
Method: (§1) In a 384 well plate, 5 µL of eleven concentrations of inhibitor in 8% DMSO (serial dilution 2:1) and a blank were incubated with an equal amount of enzyme (KLK6, Thrombin, Trypsin or Factor Xa) diluted in 50 mM Tris pH 7.5, 150 mM NaCl, 1 mM EDTA, 0.05% Tween20 assay buffer for 30 minutes. […] Inhibition of the enzyme as a function of the inhibitor concentration was used to generate dose response curves, which allowed estimating IC50 values, according to the following equation in GraphPad Prism: y = ymin + (ymax−ymin)/(1+10^(((LogIC50−x)*HillSlope))) [formula]
(§2) Assay final concentrations: • KLK6: 5 nM • Trypsin: 0.88 ng/mL • Thrombin: 9.8·10^-5 NIH unit/mL • Factor Xa: 4 nM • FSR-AMC: 20 µM

[3] = target: Thrombin (Homo sapiens, UniProt P00734); test: as above
Method: as §1, §2

[4] = target: Factor Xa (Homo sapiens, UniProt P00742); test: as above
Method: as §1, §2

[5] = target: Trypsin (Homo sapiens, UniProt P07477); test: as above
Method: as §1, §2

[6] = read-out: KLK6 IC50, KLK6 5 nM (produced in insect cells), 30 min incubation with inhibitor, FSR-AMC 20 µM, Tris pH 7.5
[7] = read-out: Thrombin IC50, Thrombin 9.8·10^-5 NIH unit/mL, 30 min incubation with inhibitor, FSR-AMC 20 µM, Tris pH 7.5
[8] = read-out: Factor Xa IC50, Factor Xa 4 nM, 30 min incubation with inhibitor, FSR-AMC 20 µM, Tris pH 7.5
[9] = read-out: Trypsin IC50, Trypsin 0.88 ng/mL, 30 min incubation with inhibitor, FSR-AMC 20 µM, Tris pH 7.5

Factor Xa, sequence (P00742 235-488 limits assumed): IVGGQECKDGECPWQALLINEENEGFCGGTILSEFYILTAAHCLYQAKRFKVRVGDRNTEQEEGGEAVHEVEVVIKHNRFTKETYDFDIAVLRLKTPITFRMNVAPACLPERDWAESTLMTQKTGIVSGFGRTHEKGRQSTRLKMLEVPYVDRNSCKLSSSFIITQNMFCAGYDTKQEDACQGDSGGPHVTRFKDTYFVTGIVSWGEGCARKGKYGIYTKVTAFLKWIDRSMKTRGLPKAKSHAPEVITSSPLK
Factor Xa, sequence (P00742 41-179 partner limits assumed): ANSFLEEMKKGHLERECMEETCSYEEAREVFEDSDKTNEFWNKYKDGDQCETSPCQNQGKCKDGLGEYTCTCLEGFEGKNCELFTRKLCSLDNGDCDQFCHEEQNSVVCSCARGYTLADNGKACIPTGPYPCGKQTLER

Structure (SMILES)	stability in cell culture medium (ester hydrolysis) [1]	IC50 [2] [µM]	IC50 [3] [µM]	IC50 [4] [µM]	IC50 [5] [µM]	IC50 [2, 6] [µM]	IC50 [3, 7] [µM]	IC50 [4, 8] [µM]	IC50 [5, 9] [µM]
Cc1nn(-c2ccccc2)c(C)c1NC(=O)COC(=O)C(C)c1c(C)[nH]c2ccccc12 (stereo not drawn) [Example Compound 81, 2-((3,5-dimethyl-1-phenyl-1H-pyrazol-4-yl)amino)-2-oxoethyl 2-(2-methyl-1H-indol-3-yl)propanoate]	further stabilizing properties	–	–	–	–	–	–	–	–
Cc1nn(-c2ccccc2)c(C)c1NC(=O)COC(=O)Cc1c(C)[nH]c2ccccc12 [Example Compound 38, 2-((3,5-dimethyl-1-phenyl-1H-pyrazol-4-yl)amino)-2-oxoethyl 2-(2-methyl-1H-indol-3-yl)acetate]	totally enhanced	–	–	–	–	–	–	–	–
Cc1cccc(-n2nc(C)c(NC(=O)COC(=O)Cn3c(C)cc4ccccc43)c2C)c1 [compound 3, 2-((3,5-dimethyl-1-(m-tolyl)-1H-pyrazol-4-yl)amino)-2-oxoethyl 2-(2-methyl-1H-indol-1-yl)acetate]	–	0.371	> 200	> 200	65.7	–	–	–	–
Cc1[nH]c2ccccc2c1CC(=O)OCC(=O)Nc1cnn(-c2ccccc2)c1 [compound 39]	–	–	–	–	–	6.98	> 50	> 50	> 50
Cc1nn(-c2ccccc2)c(C)c1NC(=O)COC(=O)Cc1ccccn1 [compound 58]	–	–	–	–	–	8.86	> 200	> 200	> 200
Cc1nn(-c2ccccc2)c(C)c1NC(=O)COC(=O)Cc1cn(C)c2ccccc12 [compound 18]	–	–	–	–	–	11.6	> 200	50.5	149
Cc1nn(-c2ccccc2)c(C)c1NC(=O)COC(=O)Cc1ccc(Cl)s1 [compound 60]	–	–	–	–	–	32.6	> 200	> 200	> 200
Cc1[nH]c2ccccc2c1CC(=O)OCC(=O)Nc1ccccc1Cl [compound 73]	–	–	–	–	–	1.46	> 200	34.7	114
Cc1cc(C)n(CC(=O)OCC(=O)Nc2c(C)nn(-c3ccccc3)c2C)n1 [compound 17]	–	–	–	–	–	109	> 200	> 200	> 200
